In patent publication US7214690B2, “Tricyclic quinolinone and tricyclic quinoline androgen receptor modulator compounds and methods” (Ligand Pharmaceuticals Incorporated, priority 2001, dated 2007) one finds EC50 and IC50 data, which are given here for 3 compounds.

Type in all cases: cell-based
One experiment has as its target T1, PR (Homo sapiens, UniProt P06401).
T1 construct: expressed in transfected cells; host or cells: background cell substantially devoid of endogenous IRs (CV-1 described for the co-transfection assay)
T1 sequence (P06401 1-933): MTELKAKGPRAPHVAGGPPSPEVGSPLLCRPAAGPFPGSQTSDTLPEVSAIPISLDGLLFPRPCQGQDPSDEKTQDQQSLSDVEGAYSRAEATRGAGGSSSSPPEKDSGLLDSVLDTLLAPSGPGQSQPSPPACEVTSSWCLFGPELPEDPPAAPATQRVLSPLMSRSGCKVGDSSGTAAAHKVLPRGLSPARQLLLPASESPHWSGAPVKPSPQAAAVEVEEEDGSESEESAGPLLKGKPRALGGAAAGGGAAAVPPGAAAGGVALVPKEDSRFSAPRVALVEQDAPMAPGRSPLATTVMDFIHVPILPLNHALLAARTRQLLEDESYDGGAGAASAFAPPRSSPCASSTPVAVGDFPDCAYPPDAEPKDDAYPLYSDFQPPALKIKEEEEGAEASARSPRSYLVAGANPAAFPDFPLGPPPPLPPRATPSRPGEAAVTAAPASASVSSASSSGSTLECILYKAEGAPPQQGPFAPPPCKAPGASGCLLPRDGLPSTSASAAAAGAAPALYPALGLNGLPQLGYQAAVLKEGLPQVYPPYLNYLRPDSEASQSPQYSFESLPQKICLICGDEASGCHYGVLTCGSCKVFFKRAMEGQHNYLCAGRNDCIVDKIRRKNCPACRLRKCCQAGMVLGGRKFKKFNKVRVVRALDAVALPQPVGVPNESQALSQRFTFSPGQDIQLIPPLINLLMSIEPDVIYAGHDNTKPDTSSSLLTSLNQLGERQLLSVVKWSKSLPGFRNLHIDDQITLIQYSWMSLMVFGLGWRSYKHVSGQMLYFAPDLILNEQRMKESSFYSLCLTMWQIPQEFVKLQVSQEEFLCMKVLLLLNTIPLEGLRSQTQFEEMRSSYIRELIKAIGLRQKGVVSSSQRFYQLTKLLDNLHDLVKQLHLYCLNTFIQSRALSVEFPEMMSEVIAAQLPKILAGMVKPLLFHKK
As to the kind of experiment: co-transfection assay, PR. As for the experimental part:
(§1) CV-1 cells (African green monkey kidney fibroblasts) were cultured in the presence of Dulbecco's Modified Eagle Medium (DMEM) supplemented with 10% charcoal resin-stripped fetal bovine serum (CH-FBS) then transferred to 96-well microtiter plates one day prior to transfection.
(§2) Three to four replicates were used for each sample.
(§3) After 40 hours, the cells were washed with PBS, lysed with a Triton X-100-based buffer and assayed for LUC and β-Gal activities using a luminometer or spectrophotometer, respectively. For each replicate, the normalized response (NR) was calculated as: LUC response/β-Gal rate • where β-Gal rate=β-Gal/β-Gal incubation time.

For the next experiment, the target named is T2, ER (Homo sapiens, UniProt P03372).
T2 construct: expressed in transfected cells; host or cells: background cell substantially devoid of endogenous IRs (CV-1 described for the co-transfection assay)
T2 sequence (P03372 1-595): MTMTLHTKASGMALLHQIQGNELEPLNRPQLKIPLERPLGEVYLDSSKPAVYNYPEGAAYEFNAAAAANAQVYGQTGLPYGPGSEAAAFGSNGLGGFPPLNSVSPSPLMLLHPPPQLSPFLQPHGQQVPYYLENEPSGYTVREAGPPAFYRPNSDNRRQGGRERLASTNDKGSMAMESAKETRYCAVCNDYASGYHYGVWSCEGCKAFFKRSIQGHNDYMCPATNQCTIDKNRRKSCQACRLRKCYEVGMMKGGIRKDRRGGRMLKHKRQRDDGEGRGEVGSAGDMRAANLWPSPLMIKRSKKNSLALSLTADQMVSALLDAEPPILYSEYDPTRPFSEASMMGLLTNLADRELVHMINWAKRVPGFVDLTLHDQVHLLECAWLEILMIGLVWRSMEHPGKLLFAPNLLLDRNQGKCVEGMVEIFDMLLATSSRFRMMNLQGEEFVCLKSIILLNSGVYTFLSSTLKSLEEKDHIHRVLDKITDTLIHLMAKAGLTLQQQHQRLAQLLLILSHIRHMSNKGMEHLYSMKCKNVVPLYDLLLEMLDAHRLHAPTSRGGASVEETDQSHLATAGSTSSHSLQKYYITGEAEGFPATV
Description: co-transfection assay, ER. The protocol: as §1, §2, §3

In another experiment the target is T3, MR (Homo sapiens, UniProt P08235).
T3 construct: expressed in transfected cells; host or cells: background cell substantially devoid of endogenous IRs (CV-1 described for the co-transfection assay)
T3 sequence (P08235 1-984): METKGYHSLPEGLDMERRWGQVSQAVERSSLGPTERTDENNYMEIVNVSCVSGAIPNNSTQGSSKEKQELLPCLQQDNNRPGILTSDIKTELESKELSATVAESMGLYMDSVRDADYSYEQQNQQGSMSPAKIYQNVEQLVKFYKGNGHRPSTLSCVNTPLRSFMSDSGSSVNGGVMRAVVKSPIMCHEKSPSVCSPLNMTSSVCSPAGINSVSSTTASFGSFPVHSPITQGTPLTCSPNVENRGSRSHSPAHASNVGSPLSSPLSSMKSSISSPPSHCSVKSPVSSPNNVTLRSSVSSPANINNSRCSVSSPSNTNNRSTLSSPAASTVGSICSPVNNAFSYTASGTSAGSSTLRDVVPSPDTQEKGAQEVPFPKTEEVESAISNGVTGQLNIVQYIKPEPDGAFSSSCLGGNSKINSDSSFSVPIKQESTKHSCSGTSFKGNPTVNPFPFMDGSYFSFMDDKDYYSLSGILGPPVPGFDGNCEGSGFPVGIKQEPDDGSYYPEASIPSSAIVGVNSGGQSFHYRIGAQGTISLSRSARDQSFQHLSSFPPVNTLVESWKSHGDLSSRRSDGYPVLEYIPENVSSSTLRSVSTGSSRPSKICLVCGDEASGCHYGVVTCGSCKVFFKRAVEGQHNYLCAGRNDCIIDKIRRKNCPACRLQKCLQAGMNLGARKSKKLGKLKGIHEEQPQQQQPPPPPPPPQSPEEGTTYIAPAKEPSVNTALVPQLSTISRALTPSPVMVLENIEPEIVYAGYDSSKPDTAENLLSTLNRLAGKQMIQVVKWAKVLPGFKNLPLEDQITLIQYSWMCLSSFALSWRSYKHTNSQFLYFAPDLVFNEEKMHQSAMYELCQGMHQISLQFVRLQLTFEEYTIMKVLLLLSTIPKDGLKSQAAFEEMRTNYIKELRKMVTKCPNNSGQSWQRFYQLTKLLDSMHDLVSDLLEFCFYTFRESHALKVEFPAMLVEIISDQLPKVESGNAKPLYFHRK
Description: co-transfection assay, MR. As for the experimental part:
as §1, §2, §3

Molecules are shown by their SMILES. pEC50, pIC50: −log10 of the molar value.

One may read the pEC50 as −log10 of the EC50, conventionally taken in molar units. Read a low pEC50 as a large EC50. What is called pIC50 is −log10 of the IC50, conventionally taken in molar units. Read a low pIC50 as a high IC50. As for `C=CCN1c2ccc3[nH]c(=O)cc(C(F)(F)F)c3c2OC[C@H]1CC` [Compound 114, (3R)-4-Allyl-3-ethyl-2,3,4,7-tetrahydro-10-(trifluoromethyl)-8H-[1,4]oxazino[2,3-f]quinolin-8-one], the negative logarithm of the EC50 (pEC50) at PR and on ER was less than 5.00 each time. Besides, the pIC50 at ER and against MR was less than 5.00 in each case.

For `CC(C)[C@@H]1COc2c(ccc3[nH]c(=O)cc(C(F)(F)F)c23)N1CC(F)(F)Cl` [Compound 124, (3R)-4-(2-Chloro-2,2-difluoroethyl)-2,3,4,7-tetrahydro-3-isopropyl-10-(trifluoromethyl)-8H-[1,4]oxazino[2,3-f]quinolin-8-one], the negative-log EC50 (pEC50) at PR and at ER was less than 5.00 each time. The pIC50 against ER and against MR was less than 5.00 throughout.

For the compound `CC[C@@H]1COc2c(ccc3[nH]c(=O)cc(C(F)(F)F)c23)N1CC(F)(F)F` [Compound 110, (3R)-3-Ethyl-2,3,4,7-tetrahydro-4-(2,2,2-trifluoroethyl)-10-(trifluoromethyl)-8H-[1,4]oxazino[2,3-f]quinolin-8-one], the pEC50 at PR and at ER was less than 5.00 throughout. The pIC50 at ER was less than 5.00; against MR it was 5.90.
